Laboratory results from patent US20240301319A1, “PERFUMING COMPOSITIONS” (FIRMNICH SA, priority 2017, published 2024).
Where a name gives a salt, the structure may show the parent alone.

How the values were obtained:
[1] = Volatility of perfuming compounds (Tables 4 to 10), with top/middle/bottom note type; format: physicochemical
Procedure, shortened: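 Note type follows from air volatility (μg/l): bottom 49–0.1, middle 99–50, top 70,000–100. Compounds are listed within watery, green, fruity, citrus, sweet, gourmand and woody families.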

[2] = Odor threshold and odor value of perfuming compounds (Tables 4 to 10)
[3] = Table 6, perfuming compounds having a fruity note
[4] = Table 6, perfuming compounds having a fruity note, note type by volatility
[5] = Table 8, perfuming compounds having a sweet note
[6] = Table 8, perfuming compounds having a sweet note, note type by volatility
[7] = Table 9, perfuming compounds having a gourmand note, note type by volatility
[8] = note type (Top/Middle/Bottom) by volatility, perfuming compounds having a green note
[9] = perfuming compounds having a green note
[10] = Table 10, perfuming compounds having a woody note, note type by volatility
[11] = Table 4, watery note, top, middle or bottom note
[12] = Table 4, watery note, equals volatility divided by odor threshold
[13] = Table 7, citrus note, top, middle or bottom note
[14] = Table 7, citrus note, equals volatility divided by odor threshold

Structure (SMILES)	Volatility [1, 3] [μg/l air]	Type [1, 4]	Type [1, 8]	Volatility (μg/l air) [1, 9] [μg/l air]	Odor Threshold (μg/l air) [2, 9] [μg/l air]	Odor Threshold [2, 3] [μg/l air]	Odor Value [2, 3]	further results
CCOC(=O)CC1(C)OCCO1 [ETHYL 2-METHYL-1,3-DIOXOLANE-2-ACETATE]	479.20	TOP (perfuming compounds having a volatility ranging from 70,000 to 100 μg/l in air are referred to as “top notes”)	Top	479.20	1.62E−03	–	–	Volatility [1, 5]: 479.20 μg/l air; Type [1, 6]: Top; Volatility ([1]; Table 9, gourmand note): 479.20 μg/l air; Type [1, 7]: Top; Odor Threshold [2, 5]: 1.62E−03 μg/l air; Odor Value [2, 5]: 2.95E+05; Odor Threshold ([2]; Table 9, gourmand note): 1.62E−03 μg/l air
COc1ccc(COC(C)=O)cc1 [4-METHOXYBENZYL ACETATE]	17.59	Bottom	–	–	–	9.24E−05	1.90E+05	–
C/C=C(\C)C(=O)OCc1ccccc1 [BENZYL (E)-2-METHYL-2-BUTENOATE]	33.88	Bottom	–	–	–	3.07E−04	1.11E+05	Type [1, 10]: Bottom; Volatility ([1]; Table 10, woody note): 33.88 μg/l air; Odor Threshold ([2]; Table 10, woody note): 3.07E−04 μg/l air
CC(=O)OC(C)CC(C)(C)c1ccccc1 (racemic) [(+−)-1,3-DIMETHYL-3-PHENYLBUTYL ACETATE]	50.65	Middle	Middle	50.65	1.06E−02	1.06E−02	4.77E+03	–
CC/C=C\CCOC(=O)C(C)C [(Z)-3-HEXENYL ISOBUTYRATE]	1073.97	TOP (perfuming compounds having a volatility ranging from 70,000 to 100 μg/l in air are referred to as “top notes”)	Top	1073.97	4.54E−02	–	–	–
CC/C=C\CC/C=C/C=O [(2E,6Z)-2,6-NONADIENAL″]	–	–	–	–	–	–	–	Volatility (μg/l air) ([1]; Table 4, watery note): 632.43 μg/l air; Type [1, 11]: TOP (perfuming compounds having a volatility ranging from 70,000 to 100 μg/l in air are referred to as “top notes”); Odor Threshold (μg/l air) ([2]; Table 4, watery note): 1.46E−04 μg/l air; Odor Value [2, 12]: 4.34E+06
CC(=O)/C(C)=C/C1C(C)=CCCC1(C)C (racemic)	36.33	Bottom	–	–	–	1.92E−04	1.89E+05	Type [1, 10]: Top; Volatility ([1]; Table 10, woody note): 106.28 μg/l air; Odor Threshold ([2]; Table 10, woody note): 5.03E−05 μg/l air
COc1cc(C=O)ccc1O [4-hydroxy-3-methoxybenzaldehyde]	–	–	–	–	–	–	–	Volatility [1, 5]: 4.24 μg/l air; Type [1, 6]: Bottom; Volatility ([1]; Table 9, gourmand note): 4.24 μg/l air; Type [1, 7]: Bottom; Odor Threshold [2, 5]: 6.75E−06 μg/l air; Odor Value [2, 5]: 6.28E+05; Odor Threshold ([2]; Table 9, gourmand note): 6.75E−06 μg/l air
CCOC(=O)CC(C)=O	2885.67	TOP (perfuming compounds having a volatility ranging from 70,000 to 100 μg/l in air are referred to as “top notes”)	Top	2885.67	5.83E−02	–	–	–
CC(=O)/C(C)=C(/C)C(C)C(C)(C)C (racemic)	–	–	–	–	–	–	–	Type [1, 10]: Top; Volatility ([1]; Table 10, woody note): 659.22 μg/l air; Odor Threshold ([2]; Table 10, woody note): 7.24E−02 μg/l air
CC(C)(O)CCC1CCCCC1 [4-CYCLOHEXYL-2-METHYL-2-BUTANOL]	79.34	Middle	–	–	–	2.83E−02	2.81E+03	Volatility (μg/l air) ([1]; Table 7, citrus note): 79.34 μg/l air; Type [1, 13]: Middle; Odor Threshold (μg/l air) ([2]; Table 7, citrus note): 2.83E−02 μg/l air; Odor Value [2, 14]: 2.81E+03
Cc1ncsc1CCO [2-(4-METHYL-1,3-THIAZOL-5-YL)-1-ETHANOL]	–	–	–	–	–	–	–	Volatility [1, 5]: 2.36 μg/l air; Type [1, 6]: Bottom; Odor Threshold [2, 5]: 2.43E−04 μg/l air; Odor Value [2, 5]: 9.71E+03
CC/C=C\CCOC(=O)C/C=C\CC [(3Z)-3-hexen-1-yl (3Z)-3-hexenoate]	210.68	TOP (perfuming compounds having a volatility ranging from 70,000 to 100 μg/l in air are referred to as “top notes”)	Top	210.68	5.17E−02	–	–	Volatility [1, 5]: 210.68 μg/l air; Type [1, 6]: Top; Volatility ([1]; Table 9, gourmand note): 210.68 μg/l air; Type [1, 7]: Top; Odor Threshold [2, 5]: 5.17E−02 μg/l air; Odor Value [2, 5]: 4.08E+03; Odor Threshold ([2]; Table 9, gourmand note): 5.17E−02 μg/l air
CCCCCCOC(=O)CCCCC [HEXYL HEXANOATE]	105.52	TOP (perfuming compounds having a volatility ranging from 70,000 to 100 μg/l in air are referred to as “top notes”)	–	–	–	9.98E−02	1.06E+03	–
CCCCCCC=O [HEPTANAL]	–	–	Top	22184.00	2.03E−03	–	–	–
CC(=O)/C=C/C1C(C)=CCCC1(C)C (racemic)	–	–	Middle	68.11	5.30E−04	–	–	–

Structure (SMILES)	Volatility [1, 3] [μg/l air]	Type [1, 4]	Type [1, 8]	Volatility (μg/l air) [1, 9] [μg/l air]	Odor Threshold (μg/l air) [2, 9] [μg/l air]	Odor Threshold [2, 3] [μg/l air]	Odor Value [2, 3]	further results
C=CC(O)CCCCC (racemic) [(+−)-1-octen-3-ol]	–	–	Top	3030.11	1.77E−03	–	–	–
CCCCCCCC=O [OCTANAL]	–	–	Top	4147.61	2.77E−04	–	–	–
CC(=O)OC(CC(C)C)CC(C)C [1-ISOBUTYL-3-METHYLBUTYL ACETATE]	5265.61	TOP (perfuming compounds having a volatility ranging from 70,000 to 100 μg/l in air are referred to as “top notes”)	Top	5265.61	1.62E+00	–	–	–
CC/C=C\CCOC=O [(Z)-3-HEXENYL FORMATE]	9873.53	TOP (perfuming compounds having a volatility ranging from 70,000 to 100 μg/l in air are referred to as “top notes”)	Top	9873.53	2.11E−03	–	–	–
O=C1CCCCCCC/C=C/CCCCCCO1 [(10E)-oxacycloheptadec-10-en-2-one]	0.74	Bottom	–	–	–	4.77E−04	1.55E+03	Volatility (μg/l air) ([1]; Table 7, citrus note): 0.74 μg/l air; Type [1, 13]: Bottom; Odor Threshold (μg/l air) ([2]; Table 7, citrus note): 4.77E−04 μg/l air; Odor Value [2, 14]: 1.55E+03
C=CCSSCC=C [DIALLYL DISULFIDE]	–	–	–	–	–	–	–	Volatility [1, 5]: 5487.52 μg/l air; Type [1, 6]: Top; Volatility ([1]; Table 9, gourmand note): 5487.52 μg/l air; Type [1, 7]: Top; Odor Threshold [2, 5]: 3.98E−05 μg/l air; Odor Value [2, 5]: 1.38E+08; Odor Threshold ([2]; Table 9, gourmand note): 3.98E−05 μg/l air
C/C=C/C(=O)[C@@H]1[C@@H](C)C=CCC1(C)C (racemic)	–	–	–	–	–	–	–	Volatility [1, 5]: 143.53 μg/l air; Type [1, 6]: Top; Volatility ([1]; Table 9, gourmand note): 143.53 μg/l air; Type [1, 7]: Top; Odor Threshold [2, 5]: 1.70E−05 μg/l air; Odor Value [2, 5]: 8.44E+06; Odor Threshold ([2]; Table 9, gourmand note): 1.70E−05 μg/l air
COC(C)(C)CCCC(C)C(C)O (racemic)	–	–	–	–	–	–	–	Type [1, 10]: Bottom; Volatility ([1]; Table 10, woody note): 35.54 μg/l air; Odor Threshold ([2]; Table 10, woody note): 2.66E−02 μg/l air
C=CCOC(=O)COC1CCCCC1 [ALLYL (CYCLOHEXYLOXY)ACETATE]	47.01	Bottom	Bottom	47.01	4.66E−05	4.66E−05	1.01E+06	–
CC1CC[C@@]2(O1)C(C)(C)CCC[C@@]2(C)O (mixture of isomers)	–	–	–	–	–	–	–	Type [1, 10]: Middle; Volatility ([1]; Table 10, woody note): 84.04 μg/l air; Odor Threshold ([2]; Table 10, woody note): 5.15E−04 μg/l air
COc1nccnc1CC(C)C [PYRAZOBUTYLE]	–	–	Top	1617.21	7.20E−07	–	–	–
CC(C)C(=O)OCCc1ccccc1 [2-PHENYLETHYL ISOBUTYRATE]	67.38	Middle	–	–	–	6.70E−03	1.01E+04	Volatility [1, 5]: 67.38 μg/l air; Type [1, 6]: Middle; Volatility ([1]; Table 9, gourmand note): 67.38 μg/l air; Type [1, 7]: Middle; Odor Threshold [2, 5]: 6.70E−03 μg/l air; Odor Value [2, 5]: 1.01E+04; Odor Threshold ([2]; Table 9, gourmand note): 6.70E−03 μg/l air
CC(C)Cc1ccc2ccccc2n1 [2-ISOBUTYLQUINOLINE]	–	–	–	–	–	–	–	Volatility [1, 5]: 8.73 μg/l air; Type [1, 6]: Bottom; Odor Threshold [2, 5]: 1.93E−04 μg/l air; Odor Value [2, 5]: 4.53E+04
CCOC(C)OC1CCCCCCCCCCC1 (racemic) [(+−)-(1-ethoxyethoxy)cyclododecane]	–	–	–	–	–	–	–	Type [1, 10]: Bottom; Volatility ([1]; Table 10, woody note): 5.04 μg/l air; Odor Threshold ([2]; Table 10, woody note): 2.51E−02 μg/l air
CC(C)=CCCC1=CCC(C)(C=O)CC1 (racemic)	–	–	–	–	–	–	–	Volatility (μg/l air) ([1]; Table 4, watery note): 26.54 μg/l air; Type [1, 11]: bottom (perfuming compounds having a volatility ranging from 49 to 0.1 μg/l in air are referred to as “bottom notes”); Odor Threshold (μg/l air) ([2]; Table 4, watery note): 2.72E−02 μg/l air; Odor Value [2, 12]: 9.76E+02
CC(C)C(=O)OCCOc1ccccc1 [2-phenoxyethyl 2-methylpropanoate]	10.05	Bottom	Bottom	10.05	3.01E−02	3.01E−02	3.34E+02	–
